# Test results: PubChem BioAssay AID2060882 (Molecular Pharmacology Branch, DTP, NCI, 2025)
# Tested on: 898857-211-R-J1-PDC complex spheroids, growth % test/control
# Experiment: Anticancer human tumor 898857-211-R-J1-PDC patient-derived melanoma cell line growth inhibition [RAS]
# Conditions: for IC50: curve of first compound; for viability, T/C: stronger effect = lower value
# Text: RAS pathway inhibitors in Combinations in Complex Spheroids
# A high-throughput screen of multi-cell type tumor spheroids was designed to identify active combinations of RAS pathway inhibitors and targeted small molecules. Complex spheroids include a stromal component modeled by human endothelial cells (HUVEC) and fibroblasts modeled by human mesenchymal stem cells (MSCs). The concentration ranges selected for each drug and investigational agent were based upon clinically achievable concentrations if the clinical Cmax of the agent was known.
# Compounds. The drugs and investigational agents: abemaciclib (NSC768073), cobimetinib (NSC768068), divarasib (GDC6063, NSC841802), docetaxel (NSC628503), GDC-1971 (RLY-1971, NSC841576), gemcitabine (NSC613327), inavolisib (NSC800729), ipatasertib (NSC767898), KB-0742 (NSC834161), MRTX-1133 (NSC836407), osimertinib (NSC779217), RMC-4630 (NSC839698), RMC-6236 (NSC851965), RMC-6291 (NSC852671), Ro-3306 (NSC812927), sapanisertib (NSC764658), SN-38 (NSC673596), staurosporine (NSC755774), SY5609 (NSC837396), and tovorafenib (DAY101, NSC766906), were obtained from the National Cancer Institute (NCI) Developmental Therapeutics Program Chemical Repository. The FDA-approved anticancer drug set is available from the NCI Developmental Therapeutics Program. […] The stock solutions were prepared in dimethyl sulfoxide (DMSO, Sigma-Aldrich, St. Louis, MO, cat. D2650) at 800-fold the tested concentration and stored at -70 degrees C prior to their use. All drugs and investigational agents were tested over a range starting from a high concentration at or near the clinical Cmax and decreasing in half-log increments. If the clinical Cmax for an agent had not been determined, the highest concentration tested was 10 microM.
# Cell Culture. All cells were maintained in an incubator at 37 degrees C and 5% CO2 with 95% humidity. The PDC lines were cultured according to standard operating procedures established by the NCI PDMR. All PDCs were thawed and cultured in Matrigel-coated flasks prepared with a working solution of 1X Ham's F-12 nutrient mix, without supplementation (Invitrogen, Waltham, MA, cat. 11765054), 100 U/mL penicillin-streptomycin (Invitrogen, cat. 15140122), and 2.5% Matrigel (Corning Inc., Corning, NY, cat. 354248) for the first three passages. The 362531-283-R-J2-PDC and 782815-120-R-J1-PDC lines were cultured in 6C/Colon 1B media, which includes advanced DMEM/F-12 (Thermo Fisher Scientific, cat. 12634028), 10 mM HEPES (Thermo Fisher Scientific, cat. 15630080), 1X GlutaMAX supplement (Thermo Fisher Scientific, cat. 35050061), 0.1 mg/mL primocin (InvivoGen, San Diego, CA, cat. ant-pm-2), 10% defined fetal bovine serum, heat inactivated (HyClone Laboratories Inc., Logan, UT, cat. SH30070.03HI), 50% L-WRN conditioned media (ATCC, cat. CRL-3276), 1.25 mM N-Acetyl-L-cysteine (Sigma-Aldrich, cat. A9165), 10 mM nicotinamide (Sigma-Aldrich, cat. N0636), 1X B-27 supplement (Thermo Fisher Scientific, cat. 17504044), 1X N-2 supplement (Thermo Fisher Scientific, cat. 17502048), 50 ng/mL human EGF (Thermo Fisher Scientific, cat. PHG0311), and 10 microM Y-27632 dihydrochloride (Tocris Bioscience, cat. 1254). The K12877-001-R-J1-PDC line was cultured in 6I media, which includes all 6C/Colon 1B media plus 10 ng/mL human FGF-10 (PeproTech, cat. 100-26), 1 ng/mL human FGF-2 (PeproTech, cat. 100-18B), 1 µM prostaglandin E2 (Tocris Bioscience, cat. 2296), […] hydrocortisone (Sigma-Aldrich, cat. H4001), and […] bovine insulin (Sigma-Aldrich, cat. I6634). The K86415-001-R-J1-PDC line was cultured in 6D media, which includes all 6C/Colon 1B media components minus the L-WRN conditioned media. The 485176-168-R4-J1-PDC was cultured in PANC media, which includes all 6C/Colon 1B media plus 100 ng/mL human FGF-10 (PeproTech, cat. 100-26), 500 nM SB-431542 (Selleckchem, cat. S1067), and 10 nM gastrin (Tocris Bioscience, cat. 3006). […]
# [1] = second compound 0.0316 µM, first compound 0.0316 µM
# [2] = second compound 0.0316 µM, first compound 0.1 µM
# [3] = second compound 0.0316 µM, first compound 0.316 µM
# [4] = second compound 0.0316 µM, first compound 1 µM
# [5] = second compound 0.0316 µM, first compound 3.16 µM
# [6] = second compound 0.0316 µM, first compound 10 µM
# [7] = second compound 0.1 µM, first compound 0.0316 µM
# [8] = second compound 0.1 µM, first compound 0.1 µM
# [9] = second compound 0.1 µM, first compound 0.316 µM
# [10] = second compound 0.1 µM, first compound 1 µM
# [11] = second compound 0.1 µM, first compound 3.16 µM
# [12] = second compound 0.1 µM, first compound 10 µM
# [13] = second compound 0.316 µM, first compound 0.0316 µM
# [14] = second compound 0.316 µM, first compound 0.1 µM
# [15] = second compound 0.316 µM, first compound 0.316 µM
# [16] = second compound 0.316 µM, first compound 1 µM
# [17] = second compound 0.316 µM, first compound 3.16 µM
# [18] = second compound 0.316 µM, first compound 10 µM
# [19] = second compound 1 µM, first compound 0.0316 µM
# [20] = second compound 1 µM, first compound 0.1 µM
# [21] = second compound 1 µM, first compound 0.316 µM
# [22] = second compound 1 µM, first compound 1 µM
# [23] = second compound 1 µM, first compound 3.16 µM
# [24] = second compound 1 µM, first compound 10 µM
# [25] = second compound 3.16 µM, first compound 0.0316 µM
# [26] = second compound 3.16 µM, first compound 0.1 µM
# [27] = second compound 3.16 µM, first compound 0.316 µM
# [28] = second compound 3.16 µM, first compound 1 µM
# [29] = second compound 3.16 µM, first compound 3.16 µM
# [30] = second compound 3.16 µM, first compound 10 µM
# [31] = second compound 10 µM, first compound 0.0316 µM
# [32] = second compound 10 µM, first compound 0.1 µM
# [33] = second compound 10 µM, first compound 0.316 µM
# [34] = second compound 10 µM, first compound 1 µM
# [35] = second compound 10 µM, first compound 3.16 µM
# [36] = second compound 10 µM, first compound 10 µM
# 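Also: spheroids exposed to compound for seven days before readout.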
# 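For viability, T/C in this document: 100% = DMSO vehicle control wells.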
compound,measurement,setting,value
CC(C)NCC(C(=O)N1CCN(c2ncnc3c2C(C)CC3O)CC1)c1ccc(Cl)cc1 (stereo unspecified) + C#Cc1c(F)ccc2cc(O)cc(-c3ncc4c(N5CC6CCC(C5)N6)nc(OCC56CCCN5CC(F)C6)nc4c3F)c12,IC50,second compound 0.0316 µM,> 10000 nM
same,IC50,second compound 0.1 µM,> 10000 nM
same,IC50,second compound 0.316 µM,> 10000 nM
same,IC50,second compound 1 µM,> 10000 nM
same,IC50,second compound 3.16 µM,> 10000 nM
same,IC50,second compound 10 µM,132 nM
same,"viability, T/C",[1],100%
same,"viability, T/C",[2],89.4%
same,"viability, T/C",[3],103%
same,"viability, T/C",[4],80.8%
same,"viability, T/C",[5],73.6%
same,"viability, T/C",[6],67.6%
same,"viability, T/C",[7],116%
same,"viability, T/C",[8],104%
same,"viability, T/C",[9],98.5%
same,"viability, T/C",[10],88.2%
same,"viability, T/C",[11],85.2%
same,"viability, T/C",[12],61.4%
same,"viability, T/C",[13],101%
same,"viability, T/C",[14],103%
same,"viability, T/C",[15],104%
same,"viability, T/C",[16],83.4%
same,"viability, T/C",[17],70.8%
same,"viability, T/C",[18],55.2%
same,"viability, T/C",[19],99.9%
same,"viability, T/C",[20],95.8%
same,"viability, T/C",[21],104%
same,"viability, T/C",[22],92%
same,"viability, T/C",[23],74.7%
same,"viability, T/C",[24],61%
same,"viability, T/C",[25],102%
same,"viability, T/C",[26],95.9%
same,"viability, T/C",[27],109%
same,"viability, T/C",[28],92.7%
same,"viability, T/C",[29],78.1%
same,"viability, T/C",[30],52%
same,"viability, T/C",[31],54.3%
same,"viability, T/C",[32],59.4%
same,"viability, T/C",[33],38.5%
same,"viability, T/C",[34],33.8%
same,"viability, T/C",[35],27.5%
same,"viability, T/C",[36],8.24%
CC(Nc1ccc2c(c1)OCCn1cc(N3C(=O)OCC3C(F)F)nc1-2)C(N)=O (stereo unspecified) + C#Cc1c(F)ccc2cc(O)cc(-c3ncc4c(N5CC6CCC(C5)N6)nc(OCC56CCCN5CC(F)C6)nc4c3F)c12,IC50,second compound 0.0316 µM,> 10000 nM
same,IC50,second compound 0.1 µM,> 10000 nM
same,IC50,second compound 0.316 µM,> 10000 nM
same,IC50,second compound 1 µM,> 10000 nM
same,IC50,second compound 3.16 µM,> 10000 nM
same,IC50,second compound 10 µM,89.7 nM
same,"viability, T/C",[1],96.9%
same,"viability, T/C",[2],98.4%
same,"viability, T/C",[3],98.3%
same,"viability, T/C",[4],87.7%
same,"viability, T/C",[5],97.8%
same,"viability, T/C",[6],69.4%
same,"viability, T/C",[7],99.9%
same,"viability, T/C",[8],90%
same,"viability, T/C",[9],99.2%
same,"viability, T/C",[10],98.4%
same,"viability, T/C",[11],91.6%
same,"viability, T/C",[12],69.9%
same,"viability, T/C",[13],106%
same,"viability, T/C",[14],101%
same,"viability, T/C",[15],92.5%
same,"viability, T/C",[16],94.2%
same,"viability, T/C",[17],87.3%
same,"viability, T/C",[18],71.3%
same,"viability, T/C",[19],108%
same,"viability, T/C",[20],99.8%
same,"viability, T/C",[21],104%
same,"viability, T/C",[22],94.7%
same,"viability, T/C",[23],83.4%
same,"viability, T/C",[24],65.2%
same,"viability, T/C",[25],98.1%
same,"viability, T/C",[26],89.2%
same,"viability, T/C",[27],94.3%
same,"viability, T/C",[28],96.3%
same,"viability, T/C",[29],82.8%
same,"viability, T/C",[30],72.4%
same,"viability, T/C",[31],59.6%
same,"viability, T/C",[32],39.3%
same,"viability, T/C",[33],47.1%
same,"viability, T/C",[34],40.1%
same,"viability, T/C",[35],32%
same,"viability, T/C",[36],20.5%
O=C(c1ccc(F)c(F)c1Nc1ccc(I)cc1F)N1CC(O)([C@@H]2CCCCN2)C1 + C#Cc1c(F)ccc2cc(O)cc(-c3ncc4c(N5CC6CCC(C5)N6)nc(OCC56CCCN5CC(F)C6)nc4c3F)c12,IC50,second compound 0.0316 µM,3.56 nM
same,IC50,second compound 0.1 µM,< 3.16 nM
same,IC50,second compound 0.316 µM,< 3.16 nM
same,IC50,second compound 1 µM,3.69 nM
same,IC50,second compound 3.16 µM,5.18 nM
same,IC50,second compound 10 µM,< 3.16 nM
same,"viability, T/C","second compound 0.0316 µM, first compound 0.00316 µM",52.6%
same,"viability, T/C","second compound 0.0316 µM, first compound 0.01 µM",35.3%
same,"viability, T/C",[1],26.1%
same,"viability, T/C",[2],26.5%
same,"viability, T/C",[3],17.6%
same,"viability, T/C",[4],14.2%
same,"viability, T/C","second compound 0.1 µM, first compound 0.00316 µM",44%
same,"viability, T/C","second compound 0.1 µM, first compound 0.01 µM",36.1%
same,"viability, T/C",[7],27.1%
same,"viability, T/C",[8],20.7%
same,"viability, T/C",[9],18.8%
same,"viability, T/C",[10],15.3%
same,"viability, T/C","second compound 0.316 µM, first compound 0.00316 µM",50%
same,"viability, T/C","second compound 0.316 µM, first compound 0.01 µM",37.8%
same,"viability, T/C",[13],29.6%
same,"viability, T/C",[14],24.8%
same,"viability, T/C",[15],16.7%
same,"viability, T/C",[16],14.5%
same,"viability, T/C","second compound 1 µM, first compound 0.00316 µM",53.5%
same,"viability, T/C","second compound 1 µM, first compound 0.01 µM",30%
same,"viability, T/C",[19],24.5%
same,"viability, T/C",[20],20.6%
same,"viability, T/C",[21],17.6%
same,"viability, T/C",[22],15.3%
same,"viability, T/C","second compound 3.16 µM, first compound 0.00316 µM",59.7%
same,"viability, T/C","second compound 3.16 µM, first compound 0.01 µM",36.2%
same,"viability, T/C",[25],26.7%
same,"viability, T/C",[26],21.4%
same,"viability, T/C",[27],19.3%
same,"viability, T/C",[28],12.5%
same,"viability, T/C","second compound 10 µM, first compound 0.00316 µM",17.5%
same,"viability, T/C","second compound 10 µM, first compound 0.01 µM",14.3%
same,"viability, T/C",[31],12.5%
same,"viability, T/C",[32],9.58%
same,"viability, T/C",[33],9.91%
same,"viability, T/C",[34],5.99%
